Test system: DENV-2 RL strain
Experiment: Survival study, lethal DENV challenge with 4G2 antibody
Type: in vivo, AG129 mice
Settings: 2'CMC

C[C@@]1(O)[C@H](O)[C@@H](CO)O[C@H]1n1ccc(N)nc1=O [2'CMC]
% Survival (d p.i. 0): 100% | % Survival (d p.i. 1): 100% | % Survival (d p.i. 2): 100% | % Survival (d p.i. 3): 100% | % Survival (d p.i. 4): 100% | % Survival (d p.i. 5): 100% | % Survival (d p.i. 6): 100% | % Survival (d p.i. 7): 100% | % Survival (d p.i. 8): 100% | % Survival (d p.i. 9): 100% | % Survival (d p.i. 10): 100% | % Survival (d p.i. 11): 100% | % Survival (d p.i. 12): 100% | % Survival (d p.i. 13): 90% | % Survival (d p.i. 14): 80% | % Survival (d p.i. 15): 80% | % Survival (d p.i. 16): 80% | % Survival (d p.i. 17): 80% | % Survival (d p.i. 18): 60% | % Survival (d p.i. 19): 60% | % Survival (d p.i. 20): 60% | % Survival (d p.i. 21): 60% | % Survival (d p.i. 22): 60% | % Survival (d p.i. 23): 60% | % Survival (d p.i. 24): 50% | % Survival (d p.i. 25 = end of study): 50%

— publication PMC10033419, “Blocking NS3–NS4B interaction inhibits dengue virus in non-human primates” (Nature, 2023)
